Experimental data from patent publication US20060069132A1, “Azolecarboxamide herbicides” (priority 2004, published 2006).

Assays:
rice = experiment: Test B flooded paddy test; format: in vivo, Oryza sativa; settings: scale 0 to 100 (0 no effect, 100 complete control)
Summary of the method: (§1)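 Formulated test chemicals went onto postemergence plants measuring 2 to 18 cm, at one to four leaves. For the paddy assay, species had reached two leaves. Scoring took place 13–15 days later by eye, relative to untreated plants, using 0 for no effect up to 100 for full control.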

wild oat = experiment: Test B postemergence herbicide test; format: in vivo, Avena fatua
Summary of the method: (§2)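 Plants grow to 1- to 4-leaf stage (2–18 cm) for postemergence spraying, or to 2-leaf stage for the paddy test. Formulated compound is applied. Greenhouse holding lasts 13–15 days. Response is scored visually relative to controls, 0 no effect to 100 complete control; a dash means no result.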

wheat = experiment: Test B postemergence herbicide test; format: in vivo, Triticum aestivum; set-up: key to Wheat plant response rating: 0 = no effect, 100 = complete control
Summary of the method: as §2

large crabgrass = experiment: Test B pre-/postemergence herbicide test; format: in vivo, Digitaria sanguinalis
Summary of the method: (§3)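 Plants compared with untreated controls 13–15 days post-treatment and given a visual 0–100 injury score. Applications: preemergence to seeds; postemergence at 1- to 4-leaf (2–18 cm); paddy species flooded, 2-leaf stage. Vehicle non-phytotoxic, surfactant included.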

barnyardgrass [1] = experiment: Test B flooded paddy test; format: in vivo, Echinochloa crus-galli; settings: scale 0 to 100 (0 no effect, 100 complete control)
Summary of the method: as §1

corn = experiment: Test B pre-/postemergence herbicide test; format: in vivo, Zea mays
Summary of the method: as §3

ducksalad = experiment: Test B flooded paddy test; format: in vivo, Heteranthera limosa; settings: scale 0 to 100 (0 no effect, 100 complete control)
Summary of the method: as §1

velvetleaf = experiment: Test B pre-/postemergence herbicide test; format: in vivo, Abutilon theophrasti
Summary of the method: as §3

Surinam grass = experiment: Test B pre-/postemergence herbicide test; format: in vivo, Urochloa decumbens
Summary of the method: as §3

lambsquarters = experiment: Test B pre-/postemergence herbicide test; format: in vivo, Chenopodium album
Summary of the method: as §3

pigweed = experiment: Test B pre-/postemergence herbicide test; format: in vivo, Amaranthus retroflexus
Summary of the method: as §3

giant foxtail = experiment: Test B pre-/postemergence herbicide test; format: in vivo, Setaria faberi
Summary of the method: as §3

[2] = tested on: small flower umbrella sedge; experiment: Test B flooded paddy test; format: in vivo, Cyperus difformis; settings: scale 0 to 100 (0 no effect, 100 complete control)
Summary of the method: as §1

blackgrass = experiment: Test B postemergence herbicide test; format: in vivo, Alopecurus myosuroides
Summary of the method: as §1

morningglory = experiment: Test B pre-/postemergence herbicide test; format: in vivo, Ipomoea coccinea
Summary of the method: as §3

barnyardgrass [3] = experiment: Test B pre-/postemergence herbicide test; format: in vivo, Echinochloa crus-galli
Summary of the method: as §3

cocklebur = experiment: Test B pre-/postemergence herbicide test; format: in vivo, Xanthium strumarium
Summary of the method: as §3

[4] = Postemergence, 500 g ai/ha, scale 0 (no effect) to 100 (complete control)
[5] = postemergence, 125 g ai/ha, scale 0 to 100
[6] = 1000 g ai/ha, visual rating, 13 to 15 days
[7] = Postemergence, 250 g ai/ha, scale 0 (no effect) to 100 (complete control)
[8] = postemergence, 62 g ai/ha, scale 0 to 100
[9] = 250 g ai/ha, scale 0 to 100, 0 no effect, 100 complete control, preemergence

## C=CCNC(=O)c1ccc(F)c(N(C(C)=O)C(=O)c2cc(C(C)(C)C)nn2CC)c1 [Compound 443]
rice; 125 g ai/ha
  Rice plant response rating: 70
Wild oat; [4]
  Oat, Wild plant response rating: 60
Wild oat; [5]
  Oat, Wild plant response rating: 40
wheat; 500 g ai/ha, scale 0 to 100, 0 no effect, 100 complete control, preemergence
  Wheat plant response rating: 100
wheat; [4]
  Wheat plant response rating: 50
wheat; [5]
  Wheat plant response rating: 40
Large crabgrass; [4]
  Crabgrass, Large plant response rating: 30
Large crabgrass; [5]
  Crabgrass, Large plant response rating: 20
Barnyardgrass [1]; 125 g ai/ha
  Barnyardgrass plant response rating: 80
corn; [4]
  Corn plant response rating: 20
corn; [5]
  Corn plant response rating: 20
ducksalad; 125 g ai/ha
  Ducksalad plant response rating: 70
velvetleaf; [4]
  Velvetleaf plant response rating: 50
velvetleaf; [5]
  Velvetleaf plant response rating: 50
Surinam grass; [4]
  Surinam Grass plant response rating: 20
Surinam grass; [5]
  Surinam Grass plant response rating: 20
lambsquarters; [4]
  Lambsquarters plant response rating: 80
lambsquarters; [5]
  Lambsquarters plant response rating: 70
pigweed; [4]
  Pigweed plant response rating: 80
pigweed; [5]
  Pigweed plant response rating: 60
Giant foxtail; [4]
  Foxtail, Giant plant response rating: 40
Giant foxtail; [5]
  Foxtail, Giant plant response rating: 30
[2]; 125 g ai/ha
  Sedge, Umbrella plant response rating: 80
blackgrass; [4]
  Blackgrass plant response rating: 40
blackgrass; [5]
  Blackgrass plant response rating: 30
morningglory; [4]
  Morningglory plant response rating: 60
morningglory; [5]
  Morningglory plant response rating: 50
Barnyardgrass [3]; Postemergence, 125 g ai/ha, scale 0 (no effect) to 100 (complete control)
  Barnyardgrass plant response rating: 20
Barnyardgrass [3]; [4]
  Barnyardgrass plant response rating: 30
cocklebur; [4]
  Cocklebur plant response rating: 80
cocklebur; [5]
  Cocklebur plant response rating: 50

## CCN(CC)C(=O)c1cccc(NC(=O)c2cn(C(C)(C)C)nc2C(F)(F)F)c1 [Compound 191]
rice; [6]
  Rice plant response rating: 0
Wild oat; [7]
  Oat, Wild plant response rating: 20
Wild oat; [8]
  Oat, Wild plant response rating: 10
wheat; [9]
  Wheat plant response rating: 0
wheat; [7]
  Wheat plant response rating: 0
wheat; [8]
  Wheat plant response rating: 0
Large crabgrass; [7]
  Crabgrass, Large plant response rating: 20
Large crabgrass; [8]
  Crabgrass, Large plant response rating: 20
Barnyardgrass [1]; [6]
  Barnyardgrass plant response rating: 20
corn; [7]
  Corn plant response rating: 10
corn; [8]
  Corn plant response rating: 10
ducksalad; [6]
  Ducksalad plant response rating: 20
velvetleaf; [7]
  Velvetleaf plant response rating: 20
velvetleaf; [8]
  Velvetleaf plant response rating: 10
Surinam grass; [7]
  Surinam Grass plant response rating: 10
Surinam grass; [8]
  Surinam Grass plant response rating: 10
lambsquarters; [7]
  Lambsquarters plant response rating: 80
lambsquarters; [8]
  Lambsquarters plant response rating: 60
pigweed; [7]
  Pigweed plant response rating: 70
pigweed; [8]
  Pigweed plant response rating: 30
Giant foxtail; [7]
  Foxtail, Giant plant response rating: 20
Giant foxtail; [8]
  Foxtail, Giant plant response rating: 10
[2]; [6]
  Sedge, Umbrella plant response rating: 90
blackgrass; [7]
  Blackgrass plant response rating: 10
blackgrass; [8]
  Blackgrass plant response rating: 0
morningglory; [7]
  Morningglory plant response rating: 90
morningglory; [8]
  Morningglory plant response rating: 40
Barnyardgrass [3]; [7]
  Barnyardgrass plant response rating: 10
Barnyardgrass [3]; [8]
  Barnyardgrass plant response rating: 0
cocklebur; [7]
  Cocklebur plant response rating: 10
cocklebur; [8]
  Cocklebur plant response rating: 0

## CCOC(=O)c1ccc(F)c(NC(=O)c2cc(C3CC3)nn2CC)c1 [Compound 74]
rice; [6]
  Rice plant response rating: 0
Wild oat; [7]
  Oat, Wild plant response rating: 40
Wild oat; [8]
  Oat, Wild plant response rating: 30
wheat; [9]
  Wheat plant response rating: 0
wheat; [7]
  Wheat plant response rating: 20
wheat; [8]
  Wheat plant response rating: 20
Large crabgrass; [7]
  Crabgrass, Large plant response rating: 10
Large crabgrass; [8]
  Crabgrass, Large plant response rating: 0
Barnyardgrass [1]; [6]
  Barnyardgrass plant response rating: 0
corn; [7]
  Corn plant response rating: 0
corn; [8]
  Corn plant response rating: 0
ducksalad; [6]
  Ducksalad plant response rating: 0
velvetleaf; [7]
  Velvetleaf plant response rating: 30
velvetleaf; [8]
  Velvetleaf plant response rating: 0
Surinam grass; [7]
  Surinam Grass plant response rating: 10
Surinam grass; [8]
  Surinam Grass plant response rating: 0
lambsquarters; [7]
  Lambsquarters plant response rating: 10
lambsquarters; [8]
  Lambsquarters plant response rating: 0
pigweed; [7]
  Pigweed plant response rating: 20
pigweed; [8]
  Pigweed plant response rating: 20
Giant foxtail; [7]
  Foxtail, Giant plant response rating: 10
Giant foxtail; [8]
  Foxtail, Giant plant response rating: 10
[2]; [6]
  Sedge, Umbrella plant response rating: 70
blackgrass; [7]
  Blackgrass plant response rating: 50
blackgrass; [8]
  Blackgrass plant response rating: 30
morningglory; [7]
  Morningglory plant response rating: 10
morningglory; [8]
  Morningglory plant response rating: 0
Barnyardgrass [3]; [7]
  Barnyardgrass plant response rating: 0
Barnyardgrass [3]; [8]
  Barnyardgrass plant response rating: 0
cocklebur; [7]
  Cocklebur plant response rating: 0
cocklebur; [8]
  Cocklebur plant response rating: 0
